Measurements: patent publication US20230346743A1, “COMBINATION CANCER THERAPIES” (The Board of Regents of the University of Oklahoma, priority 2018, published 2023)

What was measured:
NCI 60-cell line panel = conditions: cited from earlier work
FTSECs = test: MTT cytotoxicity assay and Chou-Talalay drug interaction; format: cell-based, human; conditions: hFTSECs
Experimental: (§1) Cells plated at 2000 cells/well in 96 well microtiter plates were incubated for 36-48 h and treated with a range of doses and combinations of SHetA2 and PRIMA-1 or PRIMA-1^MET, or the same volume of DMSO solvent for 72 h of incubation. The percentage of growth for single drug treatments or fold effect (1 - ratio of treated/untreated growth) was measured using the CellTiter 96 AQueous Non-Radioactive Cell Proliferation Assay (Promega, Madison, WI, USA) and the BioTeK SYNERGY H1 (BioTeK, Winooski, VT, USA). Each experiment was performed in triplicate and repeated 2-3 times.
(§2) The potencies (IC50′s) of SHetA2 or PRIMA-1 were determined using GraphPad Prism 6 software analysis of average MTT Optical Density vs drug dose. […] Single drug treatments at doses surrounding the IC50 values were evaluated parallel. All treatments were performed in triplicate and averages used to draw isobolograms and calculate combination indices (CI) and dose-reduction indices (DRIs) using CompuSyn Software according to the Chou and Talalay method (op cit). All experiments were repeated at least twice for each cell line to confirm results.

A2780 (WT p53) = test: as above; format: cell-based, human
Experimental: as §1, §2

p53 [1] = test: p53 cellular localization in hFTSECs; format: cell-based, human; conditions: 24 h
Experimental: (§3) Cytoplasmic and nuclear protein fractions were isolated from cultures using NE-PER Nuclear and Cytoplasmic Extraction Reagents (ThermoFisher, Waltham, MA, USA) and the Mitochondria/Cytosol Fractionation Kit (ThermoFisher, Waltham, MA, USA) and protein concentrations determined with BCA reagent (ThermoFisher, Waltham, MA, USA).
(§4) Proteins were extracted from cell cultures using M-PER mammalian protein extraction reagent (ThermoFisher, Waltham, MA, USA) and volumes corresponding to 30 µg determined with BCA reagent (ThermoFisher, Waltham, MA, USA) were electrophoresed into a SDS-PAGE gel and transferred to PVDF membranes. Membranes were blocked (5% dry skim milk powder in TBST buffer) for at least 1 h or overnight, washed thrice with TBST and then incubated with primary antibody: p53 DO-1, β-actin, histone H3, GAPDH (Santa Cruz Biotechnology, Dallas, TX, USA) and mortalin, Tom20, V5 tag antibodies, p21, PARP, SLC7A11, caspase 3 (Cell Signaling Technology, Danvers, MA, USA) for at least 1 h or overnight. After three washes, membranes were incubated with anti-mouse HRP conjugated (Santa Cruz Biotechnology, Dallas, TX, USA) or anti-Rabbit HRP conjugated (Cell Signaling Technology, Danvers, MA, USA) for 40 min. Membranes then were washed and developed with ECL reagents (BioRad, Hercules, CA, USA). Bands were imaged and quantified (ChemiDoc imaging system with Image Lab Software/BioRad). […]

p53 [2] = test: p53 cellular localization (immunofluorescence, Western blots of fractions) in ovarian cancer cell lines; format: cell-based, human; conditions: A2780 and OV90 ovarian cancer cell lines
Experimental: as §3, §4

p21 = test: Western blots of p21 in ovarian cancer cell lines; format: cell-based, human; conditions: A2780, SKOV3, SKOV3 R273H, SKOV3 R248W
Experimental: Proteins were extracted from cell cultures using M-PER mammalian protein extraction reagent (ThermoFisher, Waltham, MA, USA) and volumes corresponding to 30 µg determined with BCA reagent (ThermoFisher, Waltham, MA, USA) were electrophoresed into a SDS-PAGE gel and transferred to PVDF membranes. Membranes were blocked (5% dry skim milk powder in TBST buffer) for at least 1 h or overnight, washed thrice with TBST and then incubated with primary antibody: p53 DO-1, β-actin, histone H3, GAPDH (Santa Cruz Biotechnology, Dallas, TX, USA) and mortalin, Tom20, V5 tag antibodies, p21, PARP, SLC7A11, caspase 3 (Cell Signaling Technology, Danvers, MA, USA) for at least 1 h or overnight. After three washes, membranes were incubated with anti-mouse HRP conjugated (Santa Cruz Biotechnology, Dallas, TX, USA) or anti-Rabbit HRP conjugated (Cell Signaling Technology, Danvers, MA, USA) for 40 min. Membranes then were washed and developed with ECL reagents (BioRad, Hercules, CA, USA). Bands were imaged and quantified (ChemiDoc imaging system with Image Lab Software/BioRad).

Structure (SMILES): CC1(C)CC(C)(C)c2cc(NC(=S)Nc3ccc([N+](=O)[O-])cc3)ccc2S1 [SHetA2]
- Activity against cancer cell lines (NCI 60-cell line panel): active against all cancers present in the NCI 60-cell line panel
- SHetA2 sensitivity compared with ovarian cancer cell lines (FTSECs): least sensitive
- IC50 (A2780 (WT p53); A2780 cells with shRNA knockdown of p53, MTT): 4.8 µM
- IC50 (A2780 (WT p53); A2780 cells without p53 knockdown (empty vector), MTT): 2.8 µM
- p53 cellular localization (p53 [1]): minimal effects on p53 cellular localization
- p53 in nuclei (immunofluorescent imaging) (p53 [2]): dose-dependent elevation of both wild type and mutant p53 in nuclei
- p21 protein (Western blot) (p21): increased p21 protein in all cell lines evaluated regardless of p53 status
